Reference: US8592456B2 (4SC Discovery GmbH, priority 2011, dated 2013)
Read-outs that look alike come from different tables or passages of the source.

System: PBMC (T cell proliferation)
Assay: T cell proliferation assay, PHA-stimulated human PBMC (BrdU ELISA)
Format: cell-based
Procedure, shortened: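 Healthy-donor human PBMC, Ficoll-isolated, seeded 1×10^5 cells/well in RPMI1640 with 10% dialyzed FCS, stimulated with 2 μg/ml PHA alongside test compound. Proliferation read after 48 hours by BrdU ELISA.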

[1] = human PBMC, 2 μg/ml PHA, 48 hours, BrdU, read-out: D: IC50 (Tcell proliferation)
[2] = PHA-stimulated human PBMC, 48 hours, BrdU, column D, activity classes 1-4, read-out: IC50 (Tcell proliferation)

Q: CCOC(=O)c1c(-c2onc(-c3c(F)cccc3Cl)c2C(=O)OC)cnn1-c1cccc(Cl)c1Cl [Example 9, methyl 3-(2-chloro-6-fluorophenyl)-5-(1-(2,3-dichlorophenyl)-5-(ethoxycarbonyl)-1H-pyrazol-4-yl)isoxazole-4-carboxylate] was tested. Which IC50 [1] did it give?
A: Its IC50 is 1 to 10 µM.

Q: For NNC(=O)c1c(-c2c(F)cccc2Cl)noc1-c1cnn(-c2cccc(F)c2)c1C(F)(F)F [Example 133, 3-(2-chloro-6-fluorophenyl)-5-(1-(3-fluorophenyl)-5-(trifluoromethyl)-1H-pyrazol-4-yl)isoxazole-4-carbohydrazide], which IC50 [1] is on record?
A: The IC50 was 1 to 10 µM.

Q: Which IC50 [1] does the source give for CCOC(=O)c1c(-c2c(Cl)cncc2Cl)noc1-c1cnn(-c2cccc(NC(C)=O)c2)c1C(F)(F)F [Example B-11, ethyl 5-(1-(3-acetamidophenyl)-5-(trifluoromethyl)-1H-pyrazol-4-yl)-3-(3,5-dichloropyridin-4-yl)isoxazole-4-carboxylate] here?
A: The IC50 was 0.1 to 1 µM.

Q: For COC(=O)c1c(-c2c(F)cccc2Cl)noc1-c1cnn(CC(F)(F)F)c1C(F)(F)F [Example 65, methyl 3-(2-chloro-6-fluorophenyl)-5-(1-(2,2,2-trifluoroethyl)-5-(trifluoromethyl)-1H-pyrazol-4-yl)isoxazole-4-carboxylate], which IC50 [1] is on record?
A: The IC50 was 0.01 to 0.1 µM.

Q: For CON(C)C(=O)c1c(-c2c(F)cccc2Cl)noc1-c1cnn(-c2ccccc2Br)c1C(F)(F)F [Example B-74, 5-(1-(2-bromophenyl)-5-(trifluoromethyl)-1H-pyrazol-4-yl)-3-(2-chloro-6-fluorophenyl)-N-methoxy-N-methylisoxazole-4-carboxamide], which IC50 [1] is on record?
A: Its IC50 is 1 to 10 µM.

Q: For COC(=O)c1c(-c2c(F)cccc2Cl)noc1-c1cnn(C(C)C)c1C(F)(F)F [Example 66, methyl 3-(2-chloro-6-fluorophenyl)-5-(1-isopropyl-5-(trifluoromethyl)-1H-pyrazol-4-yl)isoxazole-4-carboxylate], which IC50 [1] is on record?
A: The IC50 was 1 to 10 µM.

Q: COC(=O)c1c(-c2c(F)cccc2Cl)noc1-c1cnn(-c2ccccc2F)c1C(F)(F)F [Example 1, methyl 3-(2-chloro-6-fluorophenyl)-5-(1-(2-fluorophenyl)-5-(trifluoromethyl)-1H-pyrazol-4-yl)isoxazole-4-carboxylate] was tested. Which IC50 [1] did it give?
A: The IC50 was 0.01 to 0.1 µM.

Q: Which IC50 [1] does the source give for O=C(c1c(-c2c(F)cccc2Cl)noc1-c1cnn(-c2ccccc2F)c1C(F)(F)F)N1CCN(Cc2cccc(Cl)c2)CC1 [Example 24, (3-(2-chloro-6-fluorophenyl)-5-(1-(2-fluorophenyl)-5-(trifluoromethyl)-1H-pyrazol-4-yl)isoxazol-4-yl)(4-(3-chlorobenzyl)piperazin-1-yl)methanone] here?
A: The IC50 was 0.1 to 1 µM.

Q: For NC(=S)c1c(-c2c(F)cccc2Cl)noc1-c1cnn(-c2cccc(Cl)c2)c1C(F)(F)F [Example 125, 3-(2-chloro-6-fluorophenyl)-5-(1-(3-chlorophenyl)-5-(trifluoromethyl)-1H-pyrazol-4-yl)isoxazole-4-carbothioamide], which IC50 [1] is on record?
A: Its IC50 is 1 to 10 µM.

Q: For O=C(NCc1ccccc1C(F)(F)F)c1c(-c2c(F)cccc2Cl)noc1-c1cnn(-c2ccccc2F)c1C(F)(F)F [Example 23, 3-(2-chloro-6-fluorophenyl)-5-(1-(2-fluorophenyl)-5-(trifluoromethyl)-1H-pyrazol-4-yl)-N-(2-(trifluoromethyl)benzyl)isoxazole-4-carboxamide], which IC50 [1] is on record?
A: The IC50 was 1 to 10 µM.

Q: With CCOC(=O)c1c(-c2c(Cl)cncc2Cl)noc1-c1cnn(-c2ccccn2)c1C(F)(F)F [Example B-5, ethyl 3-(3,5-dichloropyridin-4-yl)-5-(1-(pyridin-2-yl)-5-(trifluoromethyl)-1H-pyrazol-4-yl)isoxazole-4-carboxylate] as the molecule, how does the IC50 [1] read?
A: The IC50 was 1 to 10 µM.

Q: CON(C)C(=O)c1c(-c2c(F)cccc2Cl)noc1-c1cnn(-c2ccncc2)c1C(F)(F)F [Example B-59, 3-(2-chloro-6-fluorophenyl)-N-methoxy-N-methyl-5-(1-(pyridin-4-yl)-5-(trifluoromethyl)-1H-pyrazol-4-yl)isoxazole-4-carboxamide] was tested. Which IC50 [1] did it give?
A: Its IC50 is 1 to 10 µM.

Q: With CCOC(=O)c1c(-c2c(F)cccc2Cl)noc1-c1cnn(-c2ccncc2)c1C(F)(F)F [Example B-38, ethyl 3-(2-chloro-6-fluorophenyl)-5-(1-(pyridin-4-yl)-5-(trifluoromethyl)-1H-pyrazol-4-yl)-isoxazole-4-carboxylate] as the molecule, how does the IC50 [1] read?
A: The IC50 was < 0.01 µM.

Q: With CC(=O)Nc1c(-c2c(F)cccc2Cl)noc1-c1cnn(-c2cccc(Cl)c2)c1C(F)(F)F [Example B-39, N-(3-(2-chloro-6-fluorophenyl)-5-(1-(3-chlorophenyl)-5-(trifluoromethyl)-1H-pyrazol-4-yl)-isoxazol-4-yl)acetamide] as the molecule, how does the IC50 [1] read?
A: The IC50 was 1 to 10 µM.

Q: With CNC(=O)c1c(-c2c(F)cccc2Cl)noc1-c1cnn(-c2ccccc2)c1C(F)(F)F [Example 59, 3-(2-chloro-6-fluorophenyl)-N-methyl-5-(1-phenyl-5-(trifluoromethyl)-1H-pyrazol-4-yl)isoxazole-4-carboxamide] as the molecule, how does the IC50 [1] read?
A: The IC50 was 0.1 to 1 µM.

Q: How did the IC50 [1] turn out when CNC(=O)c1c(-c2c(Cl)cccc2Cl)noc1-c1cnn(-c2cccc(F)c2)c1C(F)(F)F [Example 110, 3-(2,6-dichlorophenyl)-5-(1-(3-fluorophenyl)-5-(trifluoromethyl)-1H-pyrazol-4-yl)-N-methylisoxazole-4-carboxamide] was run?
A: Its IC50 is 0.01 to 0.1 µM.

Q: Which IC50 [2] does the source give for Fc1cccc(-n2ncc(-c3onc(-c4c(F)cccc4Cl)c3-c3ccccc3)c2C(F)(F)F)c1 [Example I-14, 3-(2-chloro-6-fluorophenyl)-5-(1-(3-fluorophenyl)-5-(trifluoromethyl)-1H-pyrazol-4-yl)-4-phenylisoxazole] here?
A: The IC50 was 0.1 to 1 µM.

Q: Which IC50 [1] does the source give for CNC(=S)c1c(-c2c(F)cccc2Cl)noc1-c1cnn(-c2ccc(F)cc2)c1C(F)(F)F [Example 76, 3-(2-chloro-6-fluorophenyl)-5-(1-(4-fluorophenyl)-5-(trifluoromethyl)-1H-pyrazol-4-yl)-N-methylisoxazole-4-carbothioamide] here?
A: The IC50 was 1 to 10 µM.

Q: COC(=O)c1c(-c2c(F)cccc2Cl)noc1-c1cnn(-c2cccc(F)c2)c1 [Example B-21, methyl 3-(2-chloro-6-fluorophenyl)-5-(1-(3-fluorophenyl)-1H-pyrazol-4-yl)isoxazole-4-carboxylate] was tested. Which IC50 [1] did it give?
A: Its IC50 is 0.1 to 1 µM.

Q: Which IC50 [1] does the source give for CCOC(=O)c1c(-c2onc(-c3c(F)cccc3Cl)c2C(=O)OC)cnn1-c1cccc(C#N)c1 [Example 13, methyl 3-(2-chloro-6-fluorophenyl)-5-(1-(3-cyanophenyl)-5-(ethoxycarbonyl)-1H-pyrazol-4-yl)isoxazole-4-carboxylate] here?
A: The IC50 was 0.1 to 1 µM.

Q: COc1ccc(-c2noc(-c3cnn(-c4cccc(F)c4)c3C(F)(F)F)c2C(=O)O)cc1 [Example 108, 5-(1-(3-fluorophenyl)-5-(trifluoromethyl)-1H-pyrazol-4-yl)-3-(4-methoxyphenyl)isoxazole-4-carboxylic acid] was tested. Which IC50 [1] did it give?
A: Its IC50 is 1 to 10 µM.

Q: How did the IC50 [2] turn out when CC(C)Cn1ncc(-c2onc(-c3c(F)cccc3Cl)c2-c2nnn[nH]2)c1C(F)(F)F [Example I-1, 3-(2-chloro-6-fluorophenyl)-5-(1-isobutyl-5-(trifluoromethyl)-1H-pyrazol-4-yl)-4-(1H-tetrazol-5-yl)isoxazole] was run?
A: The IC50 was 1 to 10 µM.

Q: Which IC50 [1] does the source give for CCOC(=O)c1c(-c2c(Cl)cncc2Cl)noc1-c1cnn(-c2ccccc2Cl)c1C(F)(F)F [Example B-16, ethyl 5-(1-(2-chlorophenyl)-5-(trifluoromethyl)-1H-pyrazol-4-yl)-3-(3,5-dichloropyridin-4-yl)isoxazole-4-carboxylate] here?
A: Its IC50 is 1 to 10 µM.

Q: With CCOC(=O)c1c(-c2c(F)cccc2Cl)noc1-c1cnn(-c2cccc([N+](=O)[O-])c2)c1C(F)(F)F [Example B-90, ethyl 3-(2-chloro-6-fluorophenyl)-5-(1-(3-nitrophenyl)-5-(trifluoromethyl)-1H-pyrazol-4-yl)isoxazole-4-carboxylate] as the molecule, how does the IC50 [1] read?
A: Its IC50 is 0.01 to 0.1 µM.

Q: CCOC(=O)c1c(-c2c(F)cccc2Cl)noc1-c1cnn(-c2cccc(C#N)c2)c1C(F)(F)F [Example B-32, ethyl 3-(2-chloro-6-fluorophenyl)-5-(1-(3-cyanophenyl)-5-(trifluoromethyl)-1H-pyrazol-4-yl)isoxazole-4-carboxylate] was tested. Which IC50 [1] did it give?
A: Its IC50 is 0.01 to 0.1 µM.

Q: Which IC50 [1] does the source give for COC(=O)c1c(-c2c(F)cccc2Cl)noc1-c1cnn(-c2cc(F)cc(F)c2)c1C(F)(F)F [Example 50, methyl 3-(2-chloro-6-fluorophenyl)-5-(1-(3,5-difluorophenyl)-5-(trifluoromethyl)-1H-pyrazol-4-yl)isoxazole-4-carboxylate] here?
A: Its IC50 is < 0.01 µM.

Q: Which IC50 [2] does the source give for COc1csc(-c2c(-c3c(F)cccc3Cl)noc2-c2cnn(-c3cccc(F)c3)c2C(F)(F)F)n1 [Example I-10, 3-(2-chloro-6-fluorophenyl)-5-(1-(3-fluorophenyl)-5-(trifluoromethyl)-1H-pyrazol-4-yl)-4-(4-methoxythiazol-2-yl)isoxazole] here?
A: Its IC50 is 0.01 to 0.1 µM.

Q: O=C(NC1CCCCC1)c1c(-c2c(F)cccc2Cl)noc1-c1cnn(-c2ccccc2F)c1C(F)(F)F [Example 18, 3-(2-chloro-6-fluorophenyl)-N-cyclohexyl-5-(1-(2-fluorophenyl)-5-(trifluoromethyl)-1H-pyrazol-4-yl)isoxazole-4-carboxamide] was tested. Which IC50 [1] did it give?
A: Its IC50 is 1 to 10 µM.

Q: With CC(=O)Nc1cccc(-n2ncc(-c3onc(-c4c(F)cccc4Cl)c3-c3nnc(C)s3)c2C(F)(F)F)c1 [IB-12, N-(3-(4-(3-(2-chloro-6-fluorophenyl)-4-(5-methyl-1,3,4-thiadiazol-2-yl)isoxazol-5-yl)-5-(trifluoromethyl)-1H-pyrazol-1-yl)phenyl)acetamide] as the molecule, how does the IC50 (Homo sapiens, 48 h, read-out: IC50 (Tcell proliferation)) read?
A: The IC50 was 1 to 10 µM.

Q: For CSC(=O)c1c(-c2c(F)cccc2Cl)noc1-c1cnn(-c2cccc(Cl)c2)c1C(F)(F)F [Example 126, S-methyl 3-(2-chloro-6-fluorophenyl)-5-(1-(3-chlorophenyl)-5-(trifluoromethyl)-1H-pyrazol-4-yl)isoxazole-4-carbothioate], which IC50 [1] is on record?
A: The IC50 was < 0.01 µM.

Q: COC(=O)c1c(-c2ccccc2)noc1-c1cnn(-c2ccccc2F)c1C(F)(F)F [Example 61, methyl 5-(1-(2-fluorophenyl)-5-(trifluoromethyl)-1H-pyrazol-4-yl)-3-phenylisoxazole-4-carboxylate] was tested. Which IC50 [1] did it give?
A: Its IC50 is 1 to 10 µM.
